Data from patent US20240294467A1, “USP9X Inhibitors” (ProDeg, LLC, priority 2021, published 2024).
Read-outs that look alike come from different tables or passages of the source.

Legend:
[1] = tested on: 66 cancer cell lines; assay: ONCOLINES Profiler, whole panel; assay type: cell-based; conditions: in 3 of 66 cell lines
From the text: The sensitivities of multiple cancer cells can be determined by screening the compounds on a cancer cell line panel, such as an ONCOLINES™ Profiler (Netherlands Translational Research Center) assayed with various tumor cell lines. For more information on ONCOLINES™ methods, see https://www.oncolines.com/oncolines/oncolines-explained-facts/. […] For example, Compound 7A inhibited the proliferation of 57 of the 66 cell lines being tested. […] “A tumor cell line sensitive to the compounds” is referred to that the proliferation of a tumor cell line, when contacted with the compounds, is inhibited by at least 50%, at least 60%, at least 70%, at least 80%, at least 85%, at least 90%, at least 91%, at least 92%, at least 93%, at least 94%, at least 95%, at least 96%, at least 97%, at least 98%, at least 99%, or 100%.
(§1) The compounds were profiled on an ONCOLINES™ Profiler (Netherlands Translational Research Center) assayed with 66 cancer cell lines to determine if they were capable of inhibiting the proliferation of these cancer cells.
(§2) To further evaluate potency of the compounds, they were compared with the USP9X inhibitor WP 1130 by screening both the compounds and WP1130 on a 66-cancer cell line panel ONCOLINES™ Profiler.

[2] = molecular target: T1, USP9X (Homo sapiens (Human), UniProt Q93008); conditions: cited from earlier work
Target sequence in this assay (Q93008 whole entry, species assumed): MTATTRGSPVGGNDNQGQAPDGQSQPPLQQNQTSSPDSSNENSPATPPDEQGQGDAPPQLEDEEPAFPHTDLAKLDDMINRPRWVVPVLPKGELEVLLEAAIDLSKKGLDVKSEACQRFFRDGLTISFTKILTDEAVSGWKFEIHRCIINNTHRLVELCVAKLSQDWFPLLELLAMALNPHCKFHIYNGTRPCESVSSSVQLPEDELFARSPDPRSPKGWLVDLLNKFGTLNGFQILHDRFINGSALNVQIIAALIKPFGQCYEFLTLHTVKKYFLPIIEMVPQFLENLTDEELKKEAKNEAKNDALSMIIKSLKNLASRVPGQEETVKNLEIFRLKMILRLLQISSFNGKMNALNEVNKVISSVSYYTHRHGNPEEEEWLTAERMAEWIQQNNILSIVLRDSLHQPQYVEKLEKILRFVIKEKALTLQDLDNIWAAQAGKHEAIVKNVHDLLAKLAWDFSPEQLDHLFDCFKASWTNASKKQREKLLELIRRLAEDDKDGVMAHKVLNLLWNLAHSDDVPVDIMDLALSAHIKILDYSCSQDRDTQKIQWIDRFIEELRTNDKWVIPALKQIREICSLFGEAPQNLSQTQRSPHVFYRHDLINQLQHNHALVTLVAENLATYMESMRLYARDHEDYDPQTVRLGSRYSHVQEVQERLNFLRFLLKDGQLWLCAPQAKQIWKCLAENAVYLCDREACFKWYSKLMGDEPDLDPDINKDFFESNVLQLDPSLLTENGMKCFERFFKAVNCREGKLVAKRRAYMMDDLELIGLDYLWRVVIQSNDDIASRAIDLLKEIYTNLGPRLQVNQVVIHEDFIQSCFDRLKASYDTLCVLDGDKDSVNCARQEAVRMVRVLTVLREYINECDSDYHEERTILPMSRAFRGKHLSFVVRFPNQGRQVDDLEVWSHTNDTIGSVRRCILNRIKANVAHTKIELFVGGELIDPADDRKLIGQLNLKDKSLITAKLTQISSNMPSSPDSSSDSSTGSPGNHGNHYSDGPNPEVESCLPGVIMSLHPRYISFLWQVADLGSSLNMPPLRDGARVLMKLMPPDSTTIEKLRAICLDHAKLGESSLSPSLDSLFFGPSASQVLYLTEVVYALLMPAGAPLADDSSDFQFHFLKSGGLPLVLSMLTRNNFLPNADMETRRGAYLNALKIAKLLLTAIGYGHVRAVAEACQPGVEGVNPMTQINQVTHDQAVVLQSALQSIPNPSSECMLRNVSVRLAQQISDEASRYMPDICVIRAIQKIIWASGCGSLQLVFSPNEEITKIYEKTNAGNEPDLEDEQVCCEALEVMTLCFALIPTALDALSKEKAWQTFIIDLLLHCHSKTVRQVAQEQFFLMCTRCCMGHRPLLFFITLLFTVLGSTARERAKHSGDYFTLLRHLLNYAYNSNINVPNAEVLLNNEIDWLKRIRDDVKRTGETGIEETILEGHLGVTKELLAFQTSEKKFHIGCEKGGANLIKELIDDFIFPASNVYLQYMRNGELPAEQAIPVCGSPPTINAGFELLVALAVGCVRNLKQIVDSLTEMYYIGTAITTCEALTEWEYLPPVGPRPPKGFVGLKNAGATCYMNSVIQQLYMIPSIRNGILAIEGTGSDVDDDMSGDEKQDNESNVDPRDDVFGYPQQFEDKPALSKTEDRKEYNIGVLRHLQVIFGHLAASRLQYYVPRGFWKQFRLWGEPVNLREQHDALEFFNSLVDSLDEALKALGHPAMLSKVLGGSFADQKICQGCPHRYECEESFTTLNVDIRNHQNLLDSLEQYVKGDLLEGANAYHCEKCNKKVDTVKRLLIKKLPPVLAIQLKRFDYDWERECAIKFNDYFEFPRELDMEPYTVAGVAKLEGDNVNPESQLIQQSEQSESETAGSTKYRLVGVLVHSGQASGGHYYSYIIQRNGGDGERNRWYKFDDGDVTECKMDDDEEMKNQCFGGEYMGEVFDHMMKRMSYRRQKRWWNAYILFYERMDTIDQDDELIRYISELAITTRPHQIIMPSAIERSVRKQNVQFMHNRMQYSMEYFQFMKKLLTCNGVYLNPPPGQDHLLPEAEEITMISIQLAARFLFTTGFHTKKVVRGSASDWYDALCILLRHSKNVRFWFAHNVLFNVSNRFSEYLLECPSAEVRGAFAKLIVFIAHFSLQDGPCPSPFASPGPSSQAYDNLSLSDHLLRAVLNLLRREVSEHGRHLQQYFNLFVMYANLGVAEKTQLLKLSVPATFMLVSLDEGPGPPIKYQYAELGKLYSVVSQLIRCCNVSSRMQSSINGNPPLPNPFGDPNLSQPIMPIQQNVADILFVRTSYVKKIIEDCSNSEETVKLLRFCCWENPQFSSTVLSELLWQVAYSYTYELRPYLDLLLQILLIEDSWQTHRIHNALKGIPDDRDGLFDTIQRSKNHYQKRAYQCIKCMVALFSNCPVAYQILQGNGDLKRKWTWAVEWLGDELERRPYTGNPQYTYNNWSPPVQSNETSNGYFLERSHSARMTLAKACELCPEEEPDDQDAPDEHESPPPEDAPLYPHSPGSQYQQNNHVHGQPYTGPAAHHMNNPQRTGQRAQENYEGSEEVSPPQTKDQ

[3] = molecular target: UCH-L1 (Homo sapiens (Human), UniProt P09936); conditions: cited from earlier work
Sequence of UCH-L1 (P09936 whole entry, species assumed): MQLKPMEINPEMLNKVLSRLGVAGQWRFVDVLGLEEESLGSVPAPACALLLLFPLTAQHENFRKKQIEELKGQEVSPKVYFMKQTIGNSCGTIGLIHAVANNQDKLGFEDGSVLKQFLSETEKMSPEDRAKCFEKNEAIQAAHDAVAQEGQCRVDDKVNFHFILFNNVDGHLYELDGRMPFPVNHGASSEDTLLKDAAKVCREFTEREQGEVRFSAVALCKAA

[4] = tested on: BT-549; assay: ONCOLINES Profiler proliferation; assay type: cell-based, human; conditions: BT-549, breast ductal carcinoma
From the text: as §1, §2

[5] = molecular target: USP5 (Homo sapiens (Human), UniProt P45974); conditions: cited from earlier work
Sequence of USP5 (P45974 whole entry, species assumed): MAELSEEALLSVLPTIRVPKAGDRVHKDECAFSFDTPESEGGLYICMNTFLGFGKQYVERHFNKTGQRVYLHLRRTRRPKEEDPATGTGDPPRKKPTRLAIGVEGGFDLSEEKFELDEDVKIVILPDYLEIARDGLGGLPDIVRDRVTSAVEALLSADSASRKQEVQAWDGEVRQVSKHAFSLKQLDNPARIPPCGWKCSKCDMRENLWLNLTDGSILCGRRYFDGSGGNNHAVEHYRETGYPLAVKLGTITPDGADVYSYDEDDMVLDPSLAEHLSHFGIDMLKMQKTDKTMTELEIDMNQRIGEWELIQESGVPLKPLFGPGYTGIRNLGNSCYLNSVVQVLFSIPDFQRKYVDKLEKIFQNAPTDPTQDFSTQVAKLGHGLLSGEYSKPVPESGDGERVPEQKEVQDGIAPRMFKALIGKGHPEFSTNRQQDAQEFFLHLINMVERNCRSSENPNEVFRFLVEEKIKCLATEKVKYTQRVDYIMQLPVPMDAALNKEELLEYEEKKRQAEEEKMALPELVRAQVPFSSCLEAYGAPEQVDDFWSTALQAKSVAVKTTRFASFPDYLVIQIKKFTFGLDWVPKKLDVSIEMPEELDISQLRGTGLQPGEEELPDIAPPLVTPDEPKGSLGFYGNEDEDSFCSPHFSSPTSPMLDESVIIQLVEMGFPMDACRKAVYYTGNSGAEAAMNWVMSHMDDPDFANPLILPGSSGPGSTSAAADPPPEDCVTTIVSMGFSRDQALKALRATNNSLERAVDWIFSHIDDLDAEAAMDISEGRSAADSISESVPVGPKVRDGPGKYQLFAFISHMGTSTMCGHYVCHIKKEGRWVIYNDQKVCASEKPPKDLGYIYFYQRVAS

[6] = tested on: CCRF-CEM; assay: ONCOLINES Profiler proliferation; assay type: cell-based; conditions: acute lymphoblastic leukemia
From the text: as §1, §2

[7] = tested on: H82; assay: ONCOLINES Profiler proliferation; assay type: cell-based; conditions: H82, small cell lung
From the text: as §1, §2

[8] = tested on: A549; assay: ONCOLINES Profiler proliferation; assay type: cell-based; conditions: A549, lung
From the text: as §1, §2

[9] = tested on: RKO; assay: ONCOLINES Profiler proliferation; assay type: cell-based; conditions: colon carcinoma
From the text: as §1, §2

[10] = tested on: BT-20; assay: ONCOLINES Profiler proliferation; assay type: cell-based; conditions: BT-20, breast carcinoma
From the text: as §1, §2

[11] = tested on: LoVo; assay: ONCOLINES Profiler proliferation; assay type: cell-based; conditions: colorectal adenocarcinoma
From the text: as §1, §2

[12] = tested on: RPMI-7951; assay: ONCOLINES Profiler proliferation; assay type: cell-based; conditions: RPMI-7951, malignant melanoma
From the text: as §1, §2

[13] = tested on: DU 145; assay: ONCOLINES Profiler proliferation; assay type: cell-based; conditions: DU 145, prostate carcinoma
From the text: as §1, §2

[14] = tested on: Hs 57BT; assay: ONCOLINES Profiler proliferation; assay type: cell-based; conditions: Hs 57BT (Hs578T), breast carcinoma
From the text: as §1, §2

[15] = tested on: A-172; assay: ONCOLINES Profiler proliferation; assay type: cell-based; conditions: A-172, glioblastoma
From the text: as §1, §2

[16] = tested on: MOLT-4; assay: ONCOLINES Profiler proliferation; assay type: cell-based; conditions: MOLT-4, acute lymphoblastic leukemia
From the text: as §1, §2

[17] = molecular target: UCH37 (Homo sapiens (Human), UniProt Q9Y5K5); conditions: cited from earlier work
Sequence of UCH37 (Q9Y5K5 whole entry, species assumed): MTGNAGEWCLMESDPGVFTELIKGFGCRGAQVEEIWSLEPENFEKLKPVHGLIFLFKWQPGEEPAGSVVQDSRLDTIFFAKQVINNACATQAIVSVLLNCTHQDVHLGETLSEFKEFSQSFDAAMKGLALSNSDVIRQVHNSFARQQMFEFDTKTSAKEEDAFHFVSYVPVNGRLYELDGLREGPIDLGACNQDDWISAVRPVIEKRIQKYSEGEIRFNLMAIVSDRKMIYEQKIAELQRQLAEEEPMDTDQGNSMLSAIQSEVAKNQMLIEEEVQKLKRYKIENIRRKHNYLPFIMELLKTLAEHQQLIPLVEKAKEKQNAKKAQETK

[18] = molecular target: USP14 (Homo sapiens (Human), UniProt P54578); conditions: cited from earlier work
Sequence of USP14 (P54578 whole entry, species assumed): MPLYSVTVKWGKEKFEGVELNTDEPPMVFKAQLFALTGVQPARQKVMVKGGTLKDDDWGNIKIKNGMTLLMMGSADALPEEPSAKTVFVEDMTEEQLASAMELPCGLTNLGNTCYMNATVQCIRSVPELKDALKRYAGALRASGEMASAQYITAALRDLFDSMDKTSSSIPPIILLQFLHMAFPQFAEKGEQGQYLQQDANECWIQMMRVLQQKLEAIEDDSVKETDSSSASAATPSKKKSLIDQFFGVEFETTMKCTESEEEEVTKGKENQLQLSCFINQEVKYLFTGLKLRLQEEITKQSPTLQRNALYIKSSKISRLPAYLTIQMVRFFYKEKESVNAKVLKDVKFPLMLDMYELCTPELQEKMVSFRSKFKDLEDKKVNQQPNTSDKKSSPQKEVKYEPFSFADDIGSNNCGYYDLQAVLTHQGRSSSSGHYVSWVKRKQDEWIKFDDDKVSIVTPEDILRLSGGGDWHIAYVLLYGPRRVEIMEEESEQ

[19] = tested on: carbonic anhydrase; assay: Biacore binding to immobilized carbonic anhydrase (non-specific binding control)
[20] = molecular target: T1, USP9X; assay: Biacore T200 surface plasmon resonance binding to immobilized USP9X; conditions: 25° C.
From the text: The terms “inhibit” as used herein with respect to the activity of the USP9X inhibitor, refer to the ability to substantially antagonize, prohibit, prevent, restrain, slow, disrupt, alter, eliminate, stop, or reverse the progression or severity of, for example, the catalytic activity of a DUB such as USP9X, the survival or proliferation of a cancer cell, or a disease or condition associated with USP9X. […] In some embodiments, the compounds as described can inhibit USP9X by binding to an active site of USP9X. […] The binding activity is determined with a standard binding assay, such as a Biacore surface plasmon resonance instrument. […] The binding affinity KD is determined using a Biacore T200 instrument (GE Healthcare, Biacore). Ubiquitin aldehyde can be used as a reference in analyzing the inhibition results determined via Biacore. […]
USP9X was immobilized on a chip for surface plasmon resonance measurements via Biacore T200. Solutions of compound Compound 2A at various concentrations were flowed over the immobilized USP9X and the change in refractive index was monitored. […] The values of the maximum response for each concentration of Compound 2A were plotted and were consistent with a binding of the compound to a single site on USP9X with a dissociation equilibrium constant of 1.9 μM in reasonable agreement with value determined from the kinetic association and dissociation rates.
Target sequence in this assay (Q93008 whole entry): as the sequence (Q93008 whole entry, species assumed) above

[21] = molecular target: T1, USP9X; assay: USP9X enzyme activity assay, ubiquitin-rhodamine110 substrate
Target sequence in this assay (Q93008 whole entry): as the sequence (Q93008 whole entry, species assumed) above
Protocol: The inhibition property of compound Compound 1A was evaluated in assays measuring the ability of USP9X to catalyze the hydrolysis of the amide bond between the C terminal carboxylate of ubiquitin and rhodamine110 of the fluorogenic substrate ubiquitin-rhodamine 110. To the wells of a 96 well reaction plate was added 12.5 μL USP9X solution (1.3 nM) in assay buffer (100 mM NaCl, 1 mM DTT, 0.1% bovine serum albumin, 0.05% Tween 20, 50 mM Tris, pH 7.5). 12.5 μL of Compound 1A in assay buffer (4×final concentration) was added to the wells containing the USP9X solution, and the solution was gently mixed by pipetting up and down several times. The plate was sealed and incubated at room temperature for 20 minutes.
Then 25 μL of the 1 μM substrate (ubiquitin-rhodaminel10) solution was added in assay buffer. The final substrate concentration was 0.5 μM. […] The slope for the rate of change of the fluorescence was determined and plotted vs the concentration of Compound 1A.
USP9X enzyme assays were set up in a 96 well plate to assess the abilities of Compound 3A and Compound 4A to inhibit the activity of USP9X, respectively. Ubiquitin-rhodamine110 was used as the substrate and ubiquitin aldehyde was included in the assay as a positive control.
Purified recombinant USPx9 (R&D Systems) in 50 mM Tris buffer pH 7.5, 1 mM DTT, 100 mM NaCl, 0.05% Tween 20 and 0/1% BSA is used at a concentration of 0.325 nM with 0.5 μM ubiquitin-rhodamine (R&D Systems).

[22] = molecular target: T1, USP9X; assay: Steady-state enzyme inhibition kinetics of USP9X; assay type: biochemical
From the text: The data were fit to a general model for enzyme inhibition (FIG. 1E) so the values of the parameters determined from the assays specified the mode of inhibition. For example, in the case of α=1 and β=0, it corresponded to purely non-competitive inhibition. For α=infinity and p=1, it corresponded to purely competitive inhibition. The values of all the parameters, KS, KI, kcat, α, and β could be determined from the steady state measurements. The enzyme reactions were set up as described in the Inhibiting the catalytic activity of USP9X section. The concentration of the substrate ubqiutin-rhodamine110 was varied. The initial rates of the reactions were determined at several concentrations of the inhibitor Compound 2A. In order to determine the values of the parameters KS and kcat, the reaction rates in the absence of the inhibitor Compound 2A, the initial reaction rate data were fit to the standard Michaelis-Menten equation v=Vmax [S]/(Km+[S]). The values of α and β could then be determined by fitting the initial rate data of the enzyme reaction at various concentrations of Compound 2A to a modified version of the Michaelis-Menten equation, designating both Vmax and KS apparent to distinguish the apparent values of the parameters determined from these plots to the true values for these parameters determined from the steady state kinetics in the absence of Compound 2A. The values of α and β could be determined from the variation of the slopes and intercepts of the series of double reciprocal plots of 1/v versus 1/[S] for each concentration of Compound 2A. […] The two values determined for KI were from the two different plots.
The two values for KI were determined by two different methods for determining this parameter from the kinetic data: 1 represented a value determined from the slope of the 1/A intercept vs 1/[I] plot; 2 represented a value determined from the y intercept of the 1/A slope vs 1/[I] plot. […] Only the values of the parameters varied for the compounds.
Target sequence in this assay (Q93008 whole entry): as the sequence (Q93008 whole entry, species assumed) above

For `CCC[C@H](NC(=O)/C(C#N)=C/c1cccc(Br)n1)c1ccccc1` [WP1130, reference compound], the “fold more potent than Compound 7A” value [1] is given as “above 4 fold”, the “inhibits USP9X” value [2] is given as “inhibited” and the “inhibits UCH-L1” value [3] is given as “inhibited”. For the same compound, the IC50 [4] was 5.4 µM, the “inhibits USP5” value [5] was “inhibited” and the IC50 [6] was 4.4 µM. It also gave an IC50 [7] of 6.6 µM, an IC50 [8] of 14 µM and an IC50 [9] of 4.3 µM. The IC50 [10] was 5.1 µM, the IC50 [11] was 5.5 µM and the IC50 [12] was 4.2 µM. It also gave an IC50 [13] of 9.6 µM, an IC50 [14] of 6.3 µM and an IC50 [15] of 5.6 µM. For the same compound, the IC50 [16] was 4 µM, the “inhibits UCH37” value [17] was “inhibited” and the “inhibits USP14” value [18] was “inhibited”.

In the case of `CC(C)(C)C[C@@H]1NC(=O)c2cccc(c2)CNC(=O)c2ccc(cc2)OCCNC(=O)CC(C)(C)CC(=O)N[C@H](C(=O)O)Cc2ccc(cc2)NC1=O` [Compound 2A], the “binding to immobilized carbonic anhydrase” value [19] is reported as “did not bind”, the Kd ([20]; read-out: dissociation equilibrium constant from maximum response vs concentration, single site) is reported as 1.9 µM and the Kd ([20]; read-out: equilibrium dissociation constant KD from ratio of dissociation to association rate constant) is reported as 0.48 µM. For the same compound, the “reduction of USP9X activity” value ([21]; higher concentrations of compound (>10 μM)) was “approximately 60%”, the IC50 ([21]; read-out: IC50 for the inhibition of USP9X activity, ubiquitin-rhodamine110 substrate) was 390 nM and the IC50 ([21]; read-out: USP9X IC50 nM, Table 2) was 390 nM. For the same compound, the “KS” value [22] was 0.95 µM, the “VMAX RFU/min” value [22] was 310 RFU/min and the mode of inhibition [22] was “hyperbolic mixed inhibition”. The α [22] was 1.73, the β [22] was 0.71 and the Ki ([22]; from the slope of the 1/Δ intercept vs 1/[I] plot, read-out: KI, nM (1)) was 120 nM. It also gave a Ki ([22]; from the y intercept of the 1/Δ slope vs 1/[I] plot, read-out: KI, nM (2)) of 290 nM.
